Data set [1] in a line: LogD measurement (octanol-water). Type of data set: physicochemical. In short, it runs like this:
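Human and rat liver microsomes (0.3 mg/mL) with 1 mM NADPH and 3µM substrate, 30 minutes at 37 °C in pH 7.4 phosphate/MgCl2, triplicate; LC-MS/MS percentage remaining. LogD: octanol/aqueous buffer (pH 7.4, 2.2, 6.8, 5), 24 h shaking at room temperature. Kinetic solubility: 200 µM, 2% DMSO, 24 h, filtered.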

Data set [2] is described as follows: Liver S9 metabolic stability assay, rat. Type of data set: in vitro ADME. To be noted: 3 μM, 60 min. An outline of the steps:
(§1)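 Rat and human liver S9 (0.75 and 1.2 mg/ml) with 1 mM NADPH, 0.5 mM UDPGA, 2.5 mM GSH, 0.05 mg/ml PAPS, 3µM substrate, 60 min at 37 °C in Tris/MgCl2 pH 7.4. Mouse microsomes 0.3 mg/mL, 1 mM NADPH, 3µM, 30 min, phosphate pH 7.4. LC-MS/MS, % remaining, triplicate.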

The nature of data set [3]: Liver S9 metabolic stability assay, human. To be noted: 3 μM, 60 min. Type of data set: in vitro ADME. An outline of the steps: as §1
A short description of data set [4]: Mouse pharmacokinetics. Type of data set: in vivo. The conditions noted are these: for Vd: in vivo, read-out: Vdss; for Vd / Cl: IV 2 mg/kg; for bioavailability: PO 10 mg/kg vs IV 2 mg/kg. An excerpt:
All animal experiments were approved by the Institutional Animal Care and Use Committee (IACUC) of Bristol Myers Squibb.

Data set [5] addresses T1, hERG potassium channels (KCNH2, expressed in HEK293 cells) (Homo sapiens, UniProt Q12809).
T1 construct: expressed in transfected cells
Nature of the data set: hERG inhibition. Type of data set: cell-based. To be noted: supplement. (In general: The hERG channel carries a current that helps repolarise heart muscle cells.)

Data set [6] has as its system L. sigmodontis adult worms. The conditions noted are these: for adult worm burden reduction: figure prints reduction as negative value; for reduction of adult worm burden: mice, 30 mg/kg BID.
Data set [7] relates to O. volvulus L5 larvae. Put plainly: O. volvulus L5 ex vivo assay, motility. To be noted: Onchocerca volvulus, 504 h, read-out: O. volvulus L5 % inhibition of motility. It is filed as cell-based. The protocol: O. volvulus larvae (L4) were prepared using cryopreserved O. volvulus L3 cultured in a medium containing 1:1 NCTC-109 and IMDM (Iscove’s modified Dulbecco’s medium) supplemented with Glutamax (1×) and 2× Antibiotic-Antimycotic (Life Technologies). This culturing medium was then added in transwell 24-well plates containing human umbilical vein endothelial cell (HUVEC) monolayers, containing the L4 larvae. A week prior to conducting an assay, the cultured O. volvulus larvae (L5) were transferred into a Petri dish containing fresh medium. Aliquots of 8–10 worms were retrieved from the Petri dish and placed inside new transwells over newly seeded HUVEC monolayers in the medium described above. After the transfer of O. volvulus L5 to the plates, the test compounds were dissolved in DMSO, added to each well, and incubated at 37 °C in a 5% CO2. The media containing freshly prepared compounds were partially replaced every 2–3 days for 14 days. After 14 days, the media were completely replaced. The untreated control contains the media described above with a final concentration of 0.05% DMSO. The motility was measured every 2–3 days with the following scale: 100% motility, constant coiling movement; 75% motility, slower coiling; 50% motility, slow and intermittent movement; 25% motility, very slow movement or twitching; and 0% motility, no movement. The motility was measured visually by two operators. On day 28, the viability of O. volvulus L5 was measured by MTT. Following washout and incubation during 1 h in PBS under 5% CO2, worms were observed under an inverted microscope. Worms were considered dead if no staining or less than 50% within the worm was observed. Otherwise, if worms stained blue or more than 50% stained, then they are considered alive. All test treatments were performed in duplicates. Significance was determined using a t test.

In data set [8] the test system is O. volvulus L5 larvae. Nature of the data set: O. volvulus L5 ex vivo assay, MTT viability. Type of data set: cell-based, Onchocerca volvulus. To be noted: Day 21, 1 uM. The protocol:
This culturing medium was then added in transwell 24-well plates containing human umbilical vein endothelial cell (HUVEC) monolayers, containing the L4 larvae. A week prior to conducting an assay, the cultured O. volvulus larvae (L5) were transferred into a Petri dish containing fresh medium. […] After the transfer of O. volvulus L5 to the plates, the test compounds were dissolved in DMSO, added to each well, and incubated at 37 °C in a 5% CO2. The media containing freshly prepared compounds were partially replaced every 2–3 days for 14 days. After 14 days, the media were completely replaced. The untreated control contains the media described above with a final concentration of 0.05% DMSO. […] The motility was measured visually by two operators. […] Following washout and incubation during 1 h in PBS under 5% CO2, worms were observed under an inverted microscope. Worms were considered dead if no staining or less than 50% within the worm was observed. Otherwise, if worms stained blue or more than 50% stained, then they are considered alive. All test treatments were performed in duplicates. Significance was determined using a t test.

The target in data set [9] is CYP3A4 (Homo sapiens, UniProt P08684). Nature of the data set: Cytochrome P450 inhibition, 3A4. Type of data set: in vitro ADME. The conditions noted are these: read-out: Cytochrome P450s IC50, 3A4.
In data set [10] the target is T2, P-gp (MDR1) (Homo sapiens, UniProt P08183).
T2 construct: expressed in transfected cells; host or cells: MDCK (Madin Darby canine kidney) cells
Put plainly: MDCK/MDR1 permeability and efflux. Type of data set: in vitro ADME. To be noted: dog. The source says: Our approach was to target compounds with efflux ratio (ER) >2.5 in the MDCK cell line transfected with MDR1 (multidrug resistance-1 transfected Madin Darby canine kidney cell line). […] Our goal was to impart structural elements designed to impart Pgp recognition.

Where [11] appears, read: supplement, read-out: measured logD.
The mark [12] stands for this setting: male CD-1 mouse, PO 30 mg/kg suspension.
[13] abbreviates: female BALB/c mouse, PO 30 mg/kg.
The mark [14] stands for this setting: male CD-1 mouse, PO 10 mg/kg suspension.
Setting [15] is: plasma, male CD-1 mouse, PO 10 mg/kg suspension, read-out: Tmax.

Like-named read-outs stand apart in the source and are kept apart here. Marks after values point to notes of the source that are not given here.

T1 sequence (Q12809 whole entry): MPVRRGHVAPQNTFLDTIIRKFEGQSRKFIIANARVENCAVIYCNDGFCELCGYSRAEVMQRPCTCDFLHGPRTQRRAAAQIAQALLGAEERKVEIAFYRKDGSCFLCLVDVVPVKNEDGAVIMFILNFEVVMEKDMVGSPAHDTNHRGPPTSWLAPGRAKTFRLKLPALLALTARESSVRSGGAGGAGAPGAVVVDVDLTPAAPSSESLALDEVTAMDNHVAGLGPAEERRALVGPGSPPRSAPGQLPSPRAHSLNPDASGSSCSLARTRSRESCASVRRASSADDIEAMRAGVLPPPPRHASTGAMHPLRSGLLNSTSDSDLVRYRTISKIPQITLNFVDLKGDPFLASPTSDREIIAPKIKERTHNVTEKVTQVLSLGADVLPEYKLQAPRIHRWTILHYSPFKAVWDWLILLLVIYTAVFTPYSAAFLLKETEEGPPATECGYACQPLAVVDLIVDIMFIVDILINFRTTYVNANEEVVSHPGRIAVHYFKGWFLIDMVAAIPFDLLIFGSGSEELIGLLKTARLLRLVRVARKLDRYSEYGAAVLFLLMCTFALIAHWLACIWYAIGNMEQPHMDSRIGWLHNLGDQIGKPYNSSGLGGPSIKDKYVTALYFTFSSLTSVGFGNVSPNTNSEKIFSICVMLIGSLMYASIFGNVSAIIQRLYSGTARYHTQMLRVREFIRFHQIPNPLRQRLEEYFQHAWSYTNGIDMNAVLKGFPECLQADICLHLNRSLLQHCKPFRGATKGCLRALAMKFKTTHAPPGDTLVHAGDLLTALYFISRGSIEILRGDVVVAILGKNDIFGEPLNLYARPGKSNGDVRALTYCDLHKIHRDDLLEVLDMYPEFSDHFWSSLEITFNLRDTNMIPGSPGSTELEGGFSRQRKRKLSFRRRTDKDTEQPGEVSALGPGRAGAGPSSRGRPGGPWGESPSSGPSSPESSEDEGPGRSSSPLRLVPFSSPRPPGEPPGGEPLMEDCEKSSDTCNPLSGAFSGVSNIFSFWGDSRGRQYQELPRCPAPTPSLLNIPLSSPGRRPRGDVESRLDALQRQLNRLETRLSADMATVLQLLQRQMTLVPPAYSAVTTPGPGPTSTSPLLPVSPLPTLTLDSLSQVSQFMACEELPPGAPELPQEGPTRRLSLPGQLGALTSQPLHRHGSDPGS
Chain of CYP3A4 (P08684 whole entry): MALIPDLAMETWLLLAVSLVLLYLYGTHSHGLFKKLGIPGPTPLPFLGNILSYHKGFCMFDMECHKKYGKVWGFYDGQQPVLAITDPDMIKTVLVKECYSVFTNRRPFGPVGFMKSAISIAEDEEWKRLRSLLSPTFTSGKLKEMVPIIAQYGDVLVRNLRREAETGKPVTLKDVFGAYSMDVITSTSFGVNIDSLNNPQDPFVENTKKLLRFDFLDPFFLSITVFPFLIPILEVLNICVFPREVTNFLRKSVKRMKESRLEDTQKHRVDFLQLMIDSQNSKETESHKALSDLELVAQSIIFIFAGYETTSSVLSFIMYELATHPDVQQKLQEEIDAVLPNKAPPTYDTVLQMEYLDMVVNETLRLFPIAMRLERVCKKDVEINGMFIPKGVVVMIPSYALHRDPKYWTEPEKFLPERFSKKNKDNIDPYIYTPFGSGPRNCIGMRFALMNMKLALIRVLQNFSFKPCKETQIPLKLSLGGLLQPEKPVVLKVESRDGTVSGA
T2 sequence (P08183 whole entry): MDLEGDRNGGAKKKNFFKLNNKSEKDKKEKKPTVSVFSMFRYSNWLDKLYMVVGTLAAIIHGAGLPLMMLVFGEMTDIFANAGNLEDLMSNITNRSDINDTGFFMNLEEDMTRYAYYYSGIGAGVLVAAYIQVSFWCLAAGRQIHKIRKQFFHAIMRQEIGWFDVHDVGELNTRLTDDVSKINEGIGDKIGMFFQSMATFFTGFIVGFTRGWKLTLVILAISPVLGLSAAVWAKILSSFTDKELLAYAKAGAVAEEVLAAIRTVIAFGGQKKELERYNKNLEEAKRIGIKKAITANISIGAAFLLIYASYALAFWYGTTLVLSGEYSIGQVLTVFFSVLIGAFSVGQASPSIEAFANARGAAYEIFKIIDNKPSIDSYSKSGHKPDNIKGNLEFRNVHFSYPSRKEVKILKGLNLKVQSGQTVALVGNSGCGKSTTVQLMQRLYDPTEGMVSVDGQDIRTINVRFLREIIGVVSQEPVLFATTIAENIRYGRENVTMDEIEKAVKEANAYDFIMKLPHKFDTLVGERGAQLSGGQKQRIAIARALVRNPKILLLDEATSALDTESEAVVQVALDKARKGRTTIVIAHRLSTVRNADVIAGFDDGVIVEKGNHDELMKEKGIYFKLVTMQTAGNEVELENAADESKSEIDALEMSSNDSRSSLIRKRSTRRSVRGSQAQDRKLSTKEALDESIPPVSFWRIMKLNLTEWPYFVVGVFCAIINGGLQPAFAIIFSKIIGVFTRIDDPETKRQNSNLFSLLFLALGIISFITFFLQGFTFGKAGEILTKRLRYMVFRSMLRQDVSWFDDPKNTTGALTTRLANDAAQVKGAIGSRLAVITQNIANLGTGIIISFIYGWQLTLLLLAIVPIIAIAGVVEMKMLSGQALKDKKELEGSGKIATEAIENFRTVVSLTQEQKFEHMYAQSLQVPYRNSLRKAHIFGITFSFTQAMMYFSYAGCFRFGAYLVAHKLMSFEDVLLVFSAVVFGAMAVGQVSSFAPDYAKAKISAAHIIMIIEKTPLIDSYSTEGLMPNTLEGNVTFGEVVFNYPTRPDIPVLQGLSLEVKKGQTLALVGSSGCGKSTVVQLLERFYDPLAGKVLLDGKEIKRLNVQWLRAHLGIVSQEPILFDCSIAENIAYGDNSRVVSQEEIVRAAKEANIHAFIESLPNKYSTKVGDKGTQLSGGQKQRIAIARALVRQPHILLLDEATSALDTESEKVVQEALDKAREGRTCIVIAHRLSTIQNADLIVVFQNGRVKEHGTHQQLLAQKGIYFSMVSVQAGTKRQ

As usually defined, the logD is the decadic logarithm of the distribution of all forms, ionised or not, between an organic phase and buffer at a given pH. Usually Cmax stands for the maximum level reached in the sampled fluid or tissue. The term Tmax denotes the time at which the peak concentration occurs. As usually defined, the IC50 is the concentration at which inhibition is half-maximal. As to `Cc1cccnc1Nc1nc(-c2ccc(OC(C)C)cn2)ns1` [Compound 10, 3-(5-Isopropoxypyridin-2-yl)-N-(3-methylpyridin-2-yl)-1,2,4-thiadiazol-5-amine], in data set [1] (pH 7.4, read-out: logD), the logD at 24 h stood at 2.88. Also, in data set [1] (setting [11]), the logD at 24 h was 2.88. Moreover, in data set [2], the “Rat S9 metabolic stability” value is listed as 100 % remaining. Further, the “Human S9 metabolic stability” value in data set [3] came to 100 % remaining. In [4] (setting [12]), the “AUC(0-inf)” value was 26.0 ± 9.0 µM·h, the concentration peaked (Cmax) at 8.26 ± 2.6 µM and the Tmax was determined as 1.0 ± 0.6 h. The IC50 in data set [5] is more than 30 µM. Further, in data set [6] (reason for lowering the dose from 30 to 10 mg/kg), the tolerability in mice result is listed as “tolerability issues”.

In general, inhibition refers to the share of the control response that was lost under treatment. Consider `Cc1cccnc1Nc1nc(-c2ccc(OC3CC3)cn2)ns1` [Compound 11, 3-(5-Cyclopropoxypyridin-2-yl)-N-(3-methylpyridin-2-yl)-1,2,4-thiadiazol-5-amine], for which the logD at 24 h in [1] (pH 7.4, read-out: logD) was determined as 3.4; in [1] (setting [11]), 3.4. The “Rat S9 metabolic stability” value in [2] is given as 61 % remaining. Moreover, in [3], the “Human S9 metabolic stability” value is recorded as 76 % remaining. This molecule also returned an IC50 in [5] of more than 30 µM. Besides, the inhibition at 1 µM in data set [7] was determined as 100%. The “O. volvulus L5 % inhibition of viability” value in [8] was 100%.

On to `CC(C)c1ccnc(-c2nsc(Nc3ncccc3C(F)(F)F)n2)c1` [Compound 27], for which the logD at 24 h came out at 2.5 in data set [1] (pH 7.4, read-out: logD) and 2.5 in data set [1] (setting [11]). Moreover, in [2], the “Rat S9 metabolic stability” value came to 27 % remaining. For the same molecule, in [3], the “Human S9 metabolic stability” value was 45 % remaining. Also, in data set [7], the inhibition at 1 µM was found to be 100%.

Broadly, the bioavailability is dose-corrected exposure relative to a reference, in per cent. As to `CC(C)Oc1ccc(-c2nsc(Nc3ncccc3N(C)C)n2)nc1` [Compound 31, N^2-(3-(5-Isopropoxypyridin-2-yl)-1,2,4-thiadiazol-5-yl)-N3,N3-dimethylpyridine-2,3-diamine], the logD at 24 h came to 3.23 in data set [1] (pH 7.4, read-out: logD) and 3.23 in data set [1] (setting [11]). The “Rat S9 metabolic stability” value in data set [2] stood at 79 % remaining. In data set [3], the “Human S9 metabolic stability” value was determined as 86 % remaining. Also, the Kp at 2 h in [4] (brain and plasma, female BALB/c mouse, PO 30 mg/kg, 2 h, read-out: brain/plasma [b]/[p]) was 1.1. Further, the “AUC(0-inf)” value in [4] (setting [13]) was 4.66 ± 0.54 µM·h; in data set [4] (setting [14]), 0.94 ^h μM·h. Also, the Cmax in data set [4] (setting [13]) is 5.18 µM; in data set [4] (setting [14]) it was 0.65 µM. For the same molecule, the Tmax in data set [4] (setting [13]) and in data set [4] (setting [15]) was 0.5 h in each case. In addition, the Vd in data set [4] (male CD-1 mouse) is 3.01 L/kg. Further, the Cl in data set [4] (male CD-1 mouse) is listed as 62.9 mL/min/kg. In [4] (plasma, male CD-1 mouse), this molecule displayed a bioavailability of 13%. Further, the IC50 turned out to be 8 µM in data set [5] and 22 µM in data set [9]. Further, the inhibition at 1 µM in data set [7] came to 100%. Also, in data set [8], the “O. volvulus L5 % inhibition of viability” value turned out to be 100%. Also, the “adult worm burden reduction” value in data set [6] (mice infected SC with 40 L3 larvae, 30 mg/kg BID 7d oral) is -97.1%. For the same molecule, the “reduction of adult worm burden” value in [6] (6 days of dosing) came out at 97%.

With `CN(C)c1cccnc1Nc1nc(-c2ccc(OC3CC3)cn2)ns1` [Compound 32], in data set [1] (pH 7.4, read-out: logD), the logD at 24 h worked out at 2.5. Moreover, the logD at 24 h in data set [1] (setting [11]) is 2.5. Besides, the “Rat S9 metabolic stability” value in data set [2] is reported as 91 % remaining. Besides, in data set [3], the “Human S9 metabolic stability” value is given as 100 % remaining. For the same molecule, in data set [4] (setting [12]), the “AUC(0-inf)” value was 3.85 ± 0.76 µM·h, the highest level (Cmax) was 2.34 ± 0.52 µM and the Tmax is 0.5 ± 0.00 h. Further, in [7], the inhibition at 1 µM was 100%. In addition, in [8], the “O. volvulus L5 % inhibition of viability” value is reported as 83%. Besides, the “reduction of adult worm burden” value in data set [6] (7 days of dosing) stood at 70%. Also, the “adult worm burden reduction” value in data set [6] (naturally infected mice, 30 mg/kg BID 6d oral) is recorded as -69.9%.

The term Papp A→B denotes the apparent permeability from the apical to the basolateral side of a cell layer. Lower therefore signals poor permeation. Turning to `CC(=O)N(C)c1cccnc1Nc1nc(-c2ccc(OC(C)C)cn2)ns1` [Compound 47, N-(2-((3-(5-Isopropoxypyridin-2-yl)-1,2,4-thiadiazol-5-yl)amino)pyridin-3-yl)-N-methylacetamide], the logD at 24 h in [1] (pH 7.4, read-out: logD) amounted to 1.62. Moreover, the logD at 24 h in data set [1] (setting [11]) came to 1.62. In addition, the Kp in data set [4] (brain and plasma, male CD-1 mouse, PO 30 mg/kg, based on AUC0-t, read-out: brain/plasma [b]/[p]) worked out at 0.08. Further, in [4] (male CD-1 mouse), the Vd was found to be 0.74 ± 0.08 L/kg and the Cl was 3.6 ± 0.22 mL/min/kg. For the same molecule, in [4] (setting [14]), the “AUC(0-inf)” value was 68.1NC ^j μM·h and the concentration peaked (Cmax) at 5.27 ± 0.83 µM. For the same molecule, in [4] (setting [12]), the “AUC(0-inf)” value is reported as 121 ^h μM·h, the Cmax amounted to 13.9 µM and the Tmax is 0.50 ^h. In addition, in data set [4] (setting [15]), the Tmax was determined as 4 ± 2.8 h. This molecule registered a bioavailability in data set [4] (plasma, male CD-1 mouse) of 57%. In data set [10], this molecule had a Papp A→B of 3.9 ×10⁻⁶ cm/s. In [7] (Day 21, 1 uM), the inhibition at 1 µM came to 100%. Besides, the “O. volvulus L5 % inhibition of viability” value in data set [8] came to 100%. The IC50 in data set [9] is more than 30 µM.

For `CC(C)Oc1ccc(-c2nsc(Nc3ncccc3N(C)C(=O)C3CC3)n2)nc1` [Compound 50, N-(2-((3-(5-Isopropoxypyridin-2-yl)-1,2,4-thiadiazol-5-yl)amino)pyridin-3-yl)-N-methylcyclopropanecarboxamide], the logD at 24 h in [1] (pH 7.4, read-out: logD) stood at 2.4; in [1] (setting [11]) it was 2.4. The Kp in data set [4] (male, CD-1, mouse, brain and plasma, brain to plasma ratio, dose not given, read-out: [b]/[p]) worked out at 0.11. Moreover, the Papp A→B in [10] is 19.3 ×10⁻⁶ cm/s. For the same molecule, the inhibition at 1 µM in data set [7] (Day 21, 1 uM) is 100%. In data set [8], the “O. volvulus L5 % inhibition of viability” value was 100%.

These data come from article PMC9421654, “Discovery of Substituted Di(pyridin-2-yl)-1,2,4-thiadiazol-5-amines as Novel Macrofilaricidal Compounds for the Treatment of Human Filarial Infections” (Journal of Medicinal Chemistry, 2022).
